Consider one compound from paper PMC7979765, “trans-Translation inhibitors bind to a novel site on the ribosome and clear Neisseria gonorrhoeae in vivo” (Nature Communications, 2021).

One assay deals with Moraxella catarrhalis. Nature of the assay: MIC, microbroth dilution. Type of assay: cell-based. A general note: Dilution methods test growth across graded concentrations, often in twofold steps.
In another assay the test system is Mycoplasma pneumoniae. The assay is described as follows: MIC, microbroth dilution. Type of assay: cell-based.
The target in the next assay is T1, CYP2C19 (Homo sapiens, UniProt P33261).
T1 construct: Eurofins Discovery Services (contract assay) 4874
Nature of the assay: Cyp inhibition assay 4874. Type of assay: in vitro ADME. To be noted: catalog reference 4874, read-out: pIC50 (µM) reported (converted). How it is done: (§1) Several in vitro selectivity assays were performed at Eurofins Discovery Services using established methods and controls that behaved as expected (Supplementary Tables 5 and 6). […] For receptor panel profiling, MBX-4132 was evaluated at 10 μM and activity of >50% (agonist or antagonist; note that negative % inhibition indicates agonism) was scored as active.

The target in the next assay is T2, KCNQ1/mink (Homo sapiens, UniProt P51787).
T2 construct: Eurofins Discovery Services (contract assay) CYL8007QP2DR
The assay is described as follows: cell-based. How it is done:
as §1

In a further assay the target is T3, Phosphodiesterase PDE4D2 (Homo sapiens, UniProt Q08499).
T3 construct: Eurofins Discovery Services (contract assay) 154420
The assay is described as follows: Receptor Profiling 154420. Type of assay: biochemical. On the procedure:
as §1

For the next assay, the target named is T4, Adenosine A2A (Homo sapiens, UniProt P29274).
T4 construct: purchased Eurofins Discovery Services (Panlabs safety panel)
The assay is described as follows: Receptor Profiling 200610. Type of assay: binding. How it is done:
as §1

The target in a further assay is T5, Adrenergic α2A (Homo sapiens, UniProt P08913).
T5 construct: purchased Eurofins Discovery Services (Panlabs safety panel)
The assay is described as follows: Receptor Profiling 203630. Type of assay: binding. On the procedure:
as §1

In another assay the target is T6, Dopamine D2s (Homo sapiens, UniProt P14416).
T6 construct: purchased Eurofins Discovery Services (Panlabs safety panel)
The assay is described as follows: Receptor Profiling 219700. Type of assay: binding. How it is done: as §1

In a further assay the target is T7, Histamine H1 (Homo sapiens, UniProt P35367).
T7 construct: purchased Eurofins Discovery Services (Panlabs safety panel)
The assay is described as follows: Receptor Profiling 239610. Type of assay: binding. On the procedure: as §1

Assay [1] has as its target T8, Nicotinic Acetylcholine α4β2, Cytisine (Homo sapiens, UniProt P17787+P43681).
T8 construct: purchased Eurofins Discovery Services (Panlabs safety panel)
The assay is described as follows: Receptor Profiling 299031. Type of assay: binding. On the procedure:
as §1

Another assay has as its target T9, Vasopressin V1A (Homo sapiens, UniProt P37288).
T9 construct: purchased Eurofins Discovery Services 287530
Nature of the assay: Receptor Profiling 287530. Type of assay: binding. How it is done: as §1

Values after ≈ are worked out from the molar mass of the structure shown. Where two headings read alike, the source gives them in different places.

T8 sequence (P43681 29-627 limits assumed): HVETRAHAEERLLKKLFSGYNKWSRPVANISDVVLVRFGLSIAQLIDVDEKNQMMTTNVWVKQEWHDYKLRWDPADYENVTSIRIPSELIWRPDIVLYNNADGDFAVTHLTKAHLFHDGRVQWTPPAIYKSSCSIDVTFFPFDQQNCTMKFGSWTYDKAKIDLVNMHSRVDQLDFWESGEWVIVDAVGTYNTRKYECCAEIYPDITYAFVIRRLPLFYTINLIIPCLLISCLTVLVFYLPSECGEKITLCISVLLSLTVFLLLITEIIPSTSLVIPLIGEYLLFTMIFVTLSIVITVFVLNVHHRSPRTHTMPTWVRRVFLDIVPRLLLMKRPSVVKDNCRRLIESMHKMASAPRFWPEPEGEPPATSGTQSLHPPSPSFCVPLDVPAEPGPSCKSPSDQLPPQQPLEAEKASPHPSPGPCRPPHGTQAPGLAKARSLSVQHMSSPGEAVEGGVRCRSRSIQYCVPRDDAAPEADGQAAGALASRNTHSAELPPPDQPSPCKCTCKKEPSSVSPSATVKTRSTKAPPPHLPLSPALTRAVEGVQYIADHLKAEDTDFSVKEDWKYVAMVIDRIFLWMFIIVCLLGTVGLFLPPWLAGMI
T8 sequence (P17787 26-502): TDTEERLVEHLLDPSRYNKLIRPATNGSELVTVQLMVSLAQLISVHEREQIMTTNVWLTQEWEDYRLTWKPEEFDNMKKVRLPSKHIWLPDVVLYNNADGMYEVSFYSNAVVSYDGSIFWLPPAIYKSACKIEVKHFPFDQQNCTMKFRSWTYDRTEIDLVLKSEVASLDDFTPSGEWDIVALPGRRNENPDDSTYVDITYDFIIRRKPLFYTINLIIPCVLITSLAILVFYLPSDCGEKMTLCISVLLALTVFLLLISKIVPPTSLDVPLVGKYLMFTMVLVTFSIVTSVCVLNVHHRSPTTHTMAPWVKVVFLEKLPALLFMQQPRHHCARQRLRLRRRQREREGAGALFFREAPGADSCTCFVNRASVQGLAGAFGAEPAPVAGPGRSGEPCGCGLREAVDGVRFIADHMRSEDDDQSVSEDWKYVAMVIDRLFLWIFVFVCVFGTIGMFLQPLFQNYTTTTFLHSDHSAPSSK
T5 sequence (P08913 whole entry): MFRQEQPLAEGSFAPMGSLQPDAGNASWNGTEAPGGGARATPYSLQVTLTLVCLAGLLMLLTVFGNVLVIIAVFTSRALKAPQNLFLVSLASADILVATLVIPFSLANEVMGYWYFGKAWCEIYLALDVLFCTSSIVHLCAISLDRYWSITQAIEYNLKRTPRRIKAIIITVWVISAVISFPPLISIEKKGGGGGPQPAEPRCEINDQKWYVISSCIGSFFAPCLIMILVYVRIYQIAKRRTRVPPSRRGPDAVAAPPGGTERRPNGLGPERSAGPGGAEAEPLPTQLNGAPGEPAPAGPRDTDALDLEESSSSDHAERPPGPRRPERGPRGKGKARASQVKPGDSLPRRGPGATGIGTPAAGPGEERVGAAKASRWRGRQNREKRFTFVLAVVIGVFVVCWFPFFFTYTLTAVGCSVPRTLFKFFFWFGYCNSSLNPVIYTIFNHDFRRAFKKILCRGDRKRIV
T4 sequence (P29274 whole entry): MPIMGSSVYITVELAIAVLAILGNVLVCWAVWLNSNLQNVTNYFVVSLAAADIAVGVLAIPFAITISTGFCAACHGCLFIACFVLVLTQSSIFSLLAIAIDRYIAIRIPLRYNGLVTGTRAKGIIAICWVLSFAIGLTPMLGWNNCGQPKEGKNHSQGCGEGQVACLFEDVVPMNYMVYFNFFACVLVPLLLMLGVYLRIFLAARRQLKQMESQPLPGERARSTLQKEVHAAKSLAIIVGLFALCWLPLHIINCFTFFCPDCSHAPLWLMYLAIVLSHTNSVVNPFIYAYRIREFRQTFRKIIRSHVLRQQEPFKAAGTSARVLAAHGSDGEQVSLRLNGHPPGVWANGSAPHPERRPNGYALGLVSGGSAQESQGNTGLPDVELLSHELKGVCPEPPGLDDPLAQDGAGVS
T6 sequence (P14416 1-414 isoform P14416-2): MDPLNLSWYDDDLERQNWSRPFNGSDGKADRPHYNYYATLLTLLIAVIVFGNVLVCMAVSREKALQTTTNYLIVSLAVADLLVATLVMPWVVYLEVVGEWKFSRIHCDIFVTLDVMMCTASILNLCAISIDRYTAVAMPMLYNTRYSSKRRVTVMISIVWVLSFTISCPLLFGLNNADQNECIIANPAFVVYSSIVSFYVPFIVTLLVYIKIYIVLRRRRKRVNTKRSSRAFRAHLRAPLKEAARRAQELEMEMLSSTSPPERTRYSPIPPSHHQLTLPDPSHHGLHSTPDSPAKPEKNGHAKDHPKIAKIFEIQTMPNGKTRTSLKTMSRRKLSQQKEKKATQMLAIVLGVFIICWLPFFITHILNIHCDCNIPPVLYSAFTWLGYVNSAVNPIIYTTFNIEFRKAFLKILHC
T9 sequence (P37288 whole entry): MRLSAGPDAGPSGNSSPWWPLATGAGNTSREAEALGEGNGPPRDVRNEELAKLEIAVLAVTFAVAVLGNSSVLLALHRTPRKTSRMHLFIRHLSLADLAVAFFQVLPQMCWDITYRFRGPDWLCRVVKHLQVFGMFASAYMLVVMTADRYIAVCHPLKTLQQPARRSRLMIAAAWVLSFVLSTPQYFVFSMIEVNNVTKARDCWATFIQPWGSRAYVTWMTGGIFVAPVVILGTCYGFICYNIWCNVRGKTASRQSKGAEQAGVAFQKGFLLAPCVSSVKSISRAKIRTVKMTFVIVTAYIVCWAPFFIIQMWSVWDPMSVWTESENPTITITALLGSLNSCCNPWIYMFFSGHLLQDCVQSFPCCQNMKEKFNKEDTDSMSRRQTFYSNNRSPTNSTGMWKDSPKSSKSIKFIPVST
T7 sequence (P35367 whole entry): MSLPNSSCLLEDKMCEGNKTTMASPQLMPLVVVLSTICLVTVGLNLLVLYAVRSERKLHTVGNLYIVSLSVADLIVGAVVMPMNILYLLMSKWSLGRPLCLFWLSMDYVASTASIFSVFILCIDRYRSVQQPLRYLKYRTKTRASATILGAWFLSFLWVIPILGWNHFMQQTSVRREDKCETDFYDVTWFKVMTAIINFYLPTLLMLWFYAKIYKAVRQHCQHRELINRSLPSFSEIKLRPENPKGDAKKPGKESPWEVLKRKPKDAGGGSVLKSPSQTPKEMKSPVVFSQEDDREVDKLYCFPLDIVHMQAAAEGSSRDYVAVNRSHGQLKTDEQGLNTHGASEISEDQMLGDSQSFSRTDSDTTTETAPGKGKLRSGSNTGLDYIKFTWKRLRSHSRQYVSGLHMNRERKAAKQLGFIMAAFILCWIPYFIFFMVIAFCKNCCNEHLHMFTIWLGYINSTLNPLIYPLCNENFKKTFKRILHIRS
T1 sequence (P33261 whole entry): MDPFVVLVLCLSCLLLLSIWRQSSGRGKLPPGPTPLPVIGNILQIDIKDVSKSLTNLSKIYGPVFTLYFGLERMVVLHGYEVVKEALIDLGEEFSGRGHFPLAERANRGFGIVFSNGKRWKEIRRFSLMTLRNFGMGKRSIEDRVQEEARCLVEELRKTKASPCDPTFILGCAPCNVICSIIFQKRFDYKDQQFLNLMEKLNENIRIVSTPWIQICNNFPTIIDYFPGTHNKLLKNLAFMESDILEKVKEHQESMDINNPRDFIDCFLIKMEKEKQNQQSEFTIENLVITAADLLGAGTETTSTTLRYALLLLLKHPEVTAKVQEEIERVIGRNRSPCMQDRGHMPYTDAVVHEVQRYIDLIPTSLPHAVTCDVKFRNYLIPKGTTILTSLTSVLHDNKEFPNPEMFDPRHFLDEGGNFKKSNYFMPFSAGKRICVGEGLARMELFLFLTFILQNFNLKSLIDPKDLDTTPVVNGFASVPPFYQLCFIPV
T3 sequence (Q08499 303-809 limits assumed): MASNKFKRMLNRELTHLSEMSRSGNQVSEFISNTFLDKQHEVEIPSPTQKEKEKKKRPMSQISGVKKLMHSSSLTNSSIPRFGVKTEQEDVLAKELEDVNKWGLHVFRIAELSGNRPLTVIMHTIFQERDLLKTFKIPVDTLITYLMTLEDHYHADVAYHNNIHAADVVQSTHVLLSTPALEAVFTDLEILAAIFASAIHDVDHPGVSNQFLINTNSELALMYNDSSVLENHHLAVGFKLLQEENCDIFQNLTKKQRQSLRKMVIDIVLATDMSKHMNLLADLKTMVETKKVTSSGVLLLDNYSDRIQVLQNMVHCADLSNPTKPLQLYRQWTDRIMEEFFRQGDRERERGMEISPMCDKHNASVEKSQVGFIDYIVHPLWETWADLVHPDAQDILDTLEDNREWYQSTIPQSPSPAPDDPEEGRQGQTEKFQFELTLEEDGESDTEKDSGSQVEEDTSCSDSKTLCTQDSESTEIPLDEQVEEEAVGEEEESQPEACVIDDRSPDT

`O=C(Nc1nnc(-c2ccc(F)cc2)o1)N1CCc2ccccc2C1` [MBX-4132]: the MIC in the assay with Moraxella catarrhalis (Moraxella catarrhalis 8716, replicates) was 0.0332 µg/mL (≈ 0.0981 µM); in the assay on Moraxella catarrhalis (Moraxella catarrhalis, Moraxella catarrhalis 8716, replicates, read-out: MIC), 0.0332 µg/mL (≈ 0.0981 µM); in the assay on Moraxella catarrhalis (Moraxella catarrhalis, strain 8716, read-out: MIC), 0.04 µg/mL (≈ 0.118 µM); in the assay with Mycoplasma pneumoniae (Mycoplasma pneumoniae ATCC 15531, replicates) it was not below 34 µg/mL; with Mycoplasma pneumoniae (Mycoplasma, ATCC15531, strain ATCC 15531, read-out: MIC), not below 34 µg/mL. In addition, the values for the IC50 at CYP2C19 and at KCNQ1/mink were more than 100 µM and more than 30 µM, respectively. The inhibition at 10 µM at Phosphodiesterase PDE4D2 is 3%; on Adenosine A2A it was 42%; on Adrenergic α2A, 35%; against Dopamine D2s, 21%; against Histamine H1, 11%; in assay [1], -5%. For the same compound, the inhibition at 10 µM on Vasopressin V1A was -4%.

Usually MIC stands for the least concentration at which growth counts as inhibited. One may read the inhibition as the change of the read-out against control, counted positive when it falls.
